According to patent EP1951194B1, “ANTIMICROBIAL DECAPEPTIDE COMPOSITION FOR ORAL HYGIENE” (U.S. Government, as represented by the Secretary of the Army, priority 2005, dated 2018):
“Also recorded” adds a separate entry of the source. Ends that are not written are not given here.

Assays:
oral biofilms [1] = assay: In vitro plaque assay, viable counts of biofilms on saliva-coated HA disks; format: cell-based, human salivary bacteria; conditions: for reduction of viability, intact 66 h-old oral biofilms, compared to water treatment: KSL 200 µg/ml, benzalkonium chloride 0.001%, alone or combined, chlorhexidine positive control
Method: In conjunction with the dual flow cell system, a modification of an in vitro plaque model of biofilm formation described by Guggenheim et al. (Guggenheim et al., 2001) was used to determine the effects of tested antimicrobials and other agents on developed oral biofilms (see Appendix I for details). HA disks (Clarkson, south Williamsport, PA) were employed as substrates for salivary bacteria to form biofilms. […] Following 30 min exposure at 37°C, disks were rinsed with 3 × 1 ml of saline and transferred to sterile 15 ml polypropylene tubes containing 1 ml PBS. Biofilm cells adherent to surfaces (after treatment) were recovered by sonicating for 2 min at 5 watts with a Microson ultrasonic cell disrupter equipped with a cup horn (Misonix Inc., Farmingdale, NY). Settings including the time interval used in the sonication were pre-determined empirically to yield maximal recovery of adherent biofilm cells. The effect of KSL on disrupted biofilms was assessed by recovering biofilm cells from HA disks (45 h-old biofilms) through sonication as described above. The detached biofilm cells (in sterile dH2O) were mixed with an equal volume of aqueous KSL to obtain a final peptide concentration of 200 µg/ml, and the reaction mixtures incubated at 37°C for 30 min. The interactions of KSL and suspended biofilm cells were terminated by washing in PBS. To determine the effect of the surface-active agent (benzalkonium chloride; Sigma, St. […] Viable counts of biofilm cells derived from treated disks or disrupted biofilms were determined by spiral plating serially diluted samples onto blood agar plates. […] The 45 h-old biofilms were exposed to chlorhexidine for 1 min, and to water for 30 min at 37°C.

oral biofilms [2] = assay: Live/dead staining of treated biofilms, confocal laser scanning microscopy; format: cell-based, human salivary bacteria; conditions: biofilms on saliva-coated HA surfaces, BacLight, compared to control
Method: Untreated (a-b) and treated (c-d). Images were obtained at intervals of 2 h (a, c) and 8 h (b, d) following inoculation. […] Images of treated versus untreated biofilm cells were obtained at intervals of 2 h (a, d), 6 h (b, e), and 10 h (c, f) after inoculation of salivary bacteria into the parallel chambers of the dual flow cell. […] (C) Confocal images of control and treated biofilms grown on saliva-coated HA surfaces. Live/Dead BacLight™ Viability kit (Molecular Probes, Eugene, OR) was used to assess the viability of biofilm cells exposed to different treatments. BacLight assay solution was prepared as described by the manufacturer and the specimens were stained in dark at room temperature for 15 min. […] An excitation wavelength of 488 nm was used and the fluorescence light emitted was collected by two separate emission filters, 500-530 nm (SYTO 9, live), and 650-710 nm (propidium iodide, dead).

[3] = format: physicochemical
Method: The chewing gum formulations were prepared following a procedure described previously. The gum base was heated at a temperature between 50 and 60°C for melting. When the gum base was of the proper fluid consistency, the KSL was added as a fine powder along with the other components. The temperature was kept constant while mixing the components with the gum base in a mortar. After mixing, the homogenous chewing gum mixture was extruded, cut into squares of approximate shape and size and hardened at room temperature overnight. The composition of the gum was as follows: 550 mg of gum base, 420 mg of sorbitol, 10 mg of mannitol, 10 mg of saccharin, and 10, 20 or 30 mg of KSL (total weight: approximately 1 g). In vitro release study of KSL from chewing gums was carried out using an in vitro chewing release apparatus consisting of two modules (AB FIA, Lund, Sweden) (Fig. 1). Each module consists of a thermostatted glass cell in which two vertically oriented pistons holding an upper and a lower chewing plate are mounted. The cells were filled with 40 ml of artificial saliva and the chewing gum was loaded onto the lower chewing surface. […] The released amount of KSL was determined by RP-HPLC.

[4] = format: physicochemical; conditions: pH 5.7
Method: Test solutions of KSL were prepared using a stock peptide solution of 10 mg/ml in deionized water. The degradation of KSL peptide was investigated in sodium acetate (pH 4), sodium phosphate (pH 7.4) and sodium borate (pH 9) buffers at 0.1 M buffer concentration. Each buffer solution containing 200 µg/ml of KSL was incubated in a temperature-controlled oven at 25, 37 and 55°C, respectively. Samples were taken at pre-determined times and analyzed under HPLC conditions described above. The stability of KSL was studied at 37°C in artificial saliva over a three day period. Artificial saliva was used in the in vitro release studies in an attempt to simulate actual conditions of use. The ingredients of the artificial saliva were as follows: sodium chloride, 0.844 g; potassium chloride, 1.200 g; calcium chloride dihydrate, 0.193 g; magnesium chloride hexahydrate, 0.111 g; potassium phosphate dibasic, 0.342 g; water to make to 1000 ml. The pH was adjusted with hydrochloric acid solution to pH 5.7 ± 0.1 [26].

Compound | reduction of viable counts, intact biofilms (oral biofilms [1]; intact 45-h-old biofilms, KSL 200 µg/ml 30 min at 37°C, chlorhexidine 0.12% 1 min) | viability of biofilm cells by live/dead staining (oral biofilms [2]) | stability of KSL in the gum formulations manufactured at 50-60°C (HPLC of released KSL) [3] | degradation in artificial saliva (HPLC) [4] | reduction of viability, intact 66 h-old oral biofilms, compared to water treatment (oral biofilms [1]) | reduction of viability, intact 66 h-old oral biofilms, compared to water treatment (oral biofilms [1]; listed as Bzl)
[H]/N=C(\N/C(=N/[H])NCCCCCCNC(=N)NC(=N)Nc1ccc(Cl)cc1)Nc1ccc(Cl)cc1 [chlorhexidine, chlorhexidine digluconate] | more reduction in viability; also recorded: larger reduction of viable counts | significantly reduced the viability | – | – | – | –
KKVVFKVKFK-NH2 [KSL, Lys-Lys-Val-Val-Phe-Lys-Val-Lys-Phe-Lys-NH2] | – | – | only an intact KSL peak | no degradation peak detected | – | –
benzalkonium chloride | – | less impact on the viability | – | – | less effect on the viability | no significant reductions in viability
